Earlier results as cited in patent publication US20100273711A1, “INDIVIDUALIZED CANCER TREATMENTS” (priority 2007, published 2010).

Experiments:
SKMel19 = details: pemetrexed, cell line SKMel19; cited from earlier work
FUOV1 = details: pemetrexed, cell line FUOV1; cited from earlier work
SNB-19 = details: pemetrexed, cell line SNB-19; cited from earlier work
HL-60 = details: pemetrexed, cell line HL-60; cited from earlier work
HS578T = details: pemetrexed, cell line HS578T; cited from earlier work
K-562 = details: pemetrexed, cell line K-562; cited from earlier work
MALME-3M = details: pemetrexed, cell line MALME-3M; cited from earlier work
HCT-116 = details: pemetrexed, cell line HCT-116; cited from earlier work
SNU182 = details: pemetrexed, cell line SNU182; cited from earlier work
OAW42 = details: pemetrexed, cell line OAW42; cited from earlier work
DV90 = details: pemetrexed, cell line DV90; cited from earlier work
SW13 = details: pemetrexed, cell line Sw13; cited from earlier work
R103 = details: pemetrexed, cell line R103; cited from earlier work
SK-MEL-28 = details: pemetrexed, cell line SK-MEL-28; cited from earlier work
ES2 = details: pemetrexed, cell line ES2; cited from earlier work
HCC-2998 = details: pemetrexed, cell line HCC-2998; cited from earlier work
BT20 = details: pemetrexed, cell line BT20; cited from earlier work
Molt-4 = details: pemetrexed, cell line Molt-4; cited from earlier work
A375 = details: pemetrexed, cell line A375; cited from earlier work
OVKAR = details: pemetrexed, cell line OVKAR; cited from earlier work
MDA-MB-435 = details: pemetrexed, cell line MDA-MB-435; cited from earlier work

Measured: Resistant (Res) or Sensitive (Sen)

Nc1nc2[nH]cc(CCc3ccc(C(=O)N[C@@H](CCC(=O)O)C(=O)O)cc3)c2c(=O)[nH]1 [Pemetrexed, pemetrexed]
Res: SKMel19 | HL-60 | K-562 | HCT-116 | SNU182 | SW13 | ES2 | HCC-2998 | Molt-4 | A375
Sen: all other assays above
